Our source for the AC50 values is patent US20250171438A1 (Agios Pharmaceuticals, Inc., priority 2022, published 2025).

Molecules are shown by their SMILES. Read-outs that look alike come from different tables or passages of the source. A value given as a limit tells only on which side of the number the result lay.

This assay has as its target T1, human PAH with the R408W mutation (Homo sapiens, UniProt P00439, R408W).
T1 construct: expressed in transfected cells
T1 sequence (P00439 1-452 R408W): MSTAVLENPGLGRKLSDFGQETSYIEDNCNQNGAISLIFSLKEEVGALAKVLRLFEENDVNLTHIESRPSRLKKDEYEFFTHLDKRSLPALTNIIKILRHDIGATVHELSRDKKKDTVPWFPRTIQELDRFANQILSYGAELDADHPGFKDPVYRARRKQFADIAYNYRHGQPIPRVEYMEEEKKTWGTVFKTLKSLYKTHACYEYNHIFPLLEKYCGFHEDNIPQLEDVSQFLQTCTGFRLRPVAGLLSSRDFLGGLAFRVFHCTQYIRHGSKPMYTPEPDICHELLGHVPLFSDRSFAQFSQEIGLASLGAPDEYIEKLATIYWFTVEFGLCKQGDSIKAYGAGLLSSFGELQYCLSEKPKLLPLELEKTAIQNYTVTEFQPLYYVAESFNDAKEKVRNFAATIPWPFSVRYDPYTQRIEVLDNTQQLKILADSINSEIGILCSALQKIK
Put plainly: Cell Based Phenylalanine Flux Assay. More on the design: scale not given here. The following applies: A375 cells expressing human R408W PAH, 13C-Tyrosine by LC-MS, average where tested multiple times.

[1] abbreviates: 24 hrs compound incubation, read-out: AC50.
[2] abbreviates: 24 hrs with compound, read-out: AC50.

What is called AC50 is the concentration giving half of the maximal activity seen. As to `O=C(c1nc2ccccc2o1)N1CCc2[nH]cnc2[C@@H]1c1nc2ccccc2s1` [Example 1130, (R)-benzo[d]oxazol-2-yl(4-(benzo[d]thiazol-2-yl)-1,4,6,7-tetrahydro-5H-imidazo[4,5-c]pyridin-5-yl)methanone], the AC50 under setting [1] lay in the range of 1 to 5 µM. With `Cn1nc(C(C)(C)O)cc1C(=O)N1CCc2[nH]cnc2C1c1nc2c(F)cccc2s1` (stereo not shown), the AC50 under setting [2] lay within 1 to 5 µM. Same read-out and setting: the same measure for `Cc1nc(C(C)(C)O)oc1C(=O)N1CCc2[nH]cnc2[C@H]1c1nc2ccccc2[nH]1` [(S)-(4-(1H-benzo[d]imidazol-2-yl)-6,7-dihydro-1H-imidazo[4,5-c]pyridin-5(4H)-yl)(2-(2-hydroxypropan-2-yl)-4-methyloxazol-5-yl)methanone]: above 5 µM. For `Cc1cnc(C(=O)N2CCc3[nH]cnc3[C@@H]2c2nc3ccccc3s2)s1` [Example 1056, (R)-(4-(benzo[d]thiazol-2-yl)-6,7-dihydro-1H-imidazo[4,5-c]pyridin-5(4H)-yl)(5-methylthiazol-2-yl)methanone], the AC50 under setting [1] was above 5 µM. For the compound `CC(C)(O)Cn1ncc(C(=O)N2CCc3[nH]cnc3C2c2nc3c(F)cccc3s2)c1C(F)F` (stereo not shown), the AC50 under setting [2] is above 5 µM. Same read-out and setting: for `O=C(Cc1nncs1)N1CCc2[nH]cnc2C1c1nc2ccccc2s1` (stereo not shown) the value was 1 to 5 µM. `Cc1ncoc1C(=O)N1CCc2[nH]cnc2[C@@H]1c1nc2c(F)cccc2s1` [Example 1320, (R)-(4-(4-fluorobenzo[d]thiazol-2-yl)-6,7-dihydro-1H-imidazo[4,5-c]pyridin-5(4H)-yl)(4-methyloxazol-5-yl)methanone]: the AC50 under setting [1] was in the range of 1 to 5 µM. For the compound `O=C(c1ccon1)N1CCc2[nH]cnc2C1c1nc2ccc(F)cc2[nH]1` (stereo not shown), the AC50 under setting [2] was above 5 µM.

On to `Cc1nn(C)cc1-c1ncc(C(=O)N2CCc3[nH]cnc3[C@@H]2c2nc3ccccc3s2)s1` [Example 1380, (R)-(4-(benzo[d]thiazol-2-yl)-6,7-dihydro-1H-imidazo[4,5-c]pyridin-5(4H)-yl)(2-(1,3-dimethyl-1H-pyrazol-4-yl)thiazol-5-yl)methanone], for which the AC50 under setting [1] lay in the range of 1 to 5 µM. As for `O=C(c1nnc(-c2ccccn2)o1)N1CCc2[nH]cnc2[C@H]1c1nc2c(F)cccc2s1` [Example 1602, (S)-(4-(4-fluorobenzo[d]thiazol-2-yl)-6,7-dihydro-1H-imidazo[4,5-c]pyridin-5(4H)-yl)(5-(pyridin-2-yl)-1,3,4-oxadiazol-2-yl)methanone], the AC50 under setting [1] is below 0.5 µM. Turning to `O=C(c1cc(Cl)n[nH]1)N1CCc2[nH]cnc2C1c1nc2c(F)cccc2s1` (stereo not shown), the AC50 under setting [2] lay within 1 to 5 µM. As for `O=C(c1nnc(-c2ccc(F)c(F)c2)o1)N1CCc2[nH]cnc2[C@@H]1c1nc2ccccc2s1` [Example 1802, (R)-(4-(benzo[d]thiazol-2-yl)-6,7-dihydro-1H-imidazo[4,5-c]pyridin-5(4H)-yl)(5-(3,4-difluorophenyl)-1,3,4-oxadiazol-2-yl)methanone], the AC50 under setting [1] fell in the range of 1 to 5 µM.

Take `O=C(c1ccnn1C1CC1)N1CCc2[nH]cnc2[C@H]1c1nc2c(F)cccc2s1` [Example 1735]: the AC50 under setting [1] is below 0.5 µM. For `CCn1ncnc1C(=O)N1CCc2[nH]cnc2[C@H]1c1nc2ccccc2s1` [Example 1958], the AC50 under setting [1] is below 0.5 µM.

For the compound `CC(C)n1ncc(C(=O)N2CCc3[nH]cnc3[C@H]2c2nc3c(F)cccc3s2)c1C(F)F` [Example 2001, (S)-(5-(difluoromethyl)-1-isopropyl-1H-pyrazol-4-yl)(4-(4-fluorobenzo[d]thiazol-2-yl)-6,7-dihydro-1H-imidazo[4,5-c]pyridin-5(4H)-yl)methanone], under setting [1], the AC50 is below 0.5 µM.

Consider `O=C(c1cn[nH]c1C(F)F)N1CCc2[nH]cnc2[C@@H]1c1nc2c(F)cccc2s1` [Example 1860, (R)-(5-(difluoromethyl)-1H-pyrazol-4-yl)(4-(4-fluorobenzo[d]thiazol-2-yl)-6,7-dihydro-1H-imidazo[4,5-c]pyridin-5(4H)-yl)methanone], for which the AC50 under setting [1] lay within 1 to 5 µM. `O=C(c1cnn2ccccc12)N1CCc2[nH]cnc2C1c1nc2ccc(Cl)cc2s1` (stereo not shown): under setting [2], the AC50 is above 5 µM. Turning to `O=C(c1c(C(F)(F)F)nn2c1CCCC2)N1CCc2[nH]cnc2C1c1nc2ccccc2s1` (stereo not shown), where the note is “24 hrs with compound”, the AC50 result was “E, E”. On to `O=C(Cc1cnco1)N1CCc2[nH]cnc2[C@@H]1c1nc2ccccc2s1` (single isomer, unassigned), for which the AC50 under setting [2] is above 5 µM. The same measure, in the same setting: the same measure for `CN(C)CCn1ncc(C(=O)N2CCc3[nH]cnc3C2c2nc3ccccc3s2)c1C#N` (stereo not shown): above 5 µM. As to `O=C(c1cnn2ccccc12)N1CCc2[nH]cnc2[C@@H]1c1nc2cccc(F)c2s1` [Example 1110, (R)-(4-(7-fluorobenzo[d]thiazol-2-yl)-6,7-dihydro-1H-imidazo[4,5-c]pyridin-5(4H)-yl)(pyrazolo[1,5-a]pyridin-3-yl)methanone], the AC50 under setting [1] was 0.5 to 1 µM.

Regarding `O=C(c1nnc(-c2ccccn2)o1)N1CCc2[nH]cnc2[C@H]1c1nc2cc(F)ccc2s1` [Example 1748, (S)-(4-(5-fluorobenzo[d]thiazol-2-yl)-6,7-dihydro-1H-imidazo[4,5-c]pyridin-5(4H)-yl)(5-(pyridin-2-yl)-1,3,4-oxadiazol-2-yl)methanone], under setting [1], the AC50 is below 0.5 µM.

For `O=C(C1CC1)N1CCc2[nH]cnc2C1c1nc2cc(F)ccc2s1` (stereo not shown), under setting [2], the AC50 is above 5 µM. Same read-out and setting: the same measure for `O=C(c1ccsn1)N1CCc2[nH]cnc2C1c1nc2ccccc2s1` (stereo not shown): 1 to 5 µM; for `Cc1nc(-c2ccccn2)oc1C(=O)N1CC2(CC2)c2[nH]cnc2C1c1nc2ccccc2s1` (stereo not shown): above 5 µM. Same read-out and setting: for `O=C(c1nc2ccccc2s1)N1CCc2[nH]cnc2C1c1nc2cc(F)ccc2s1` (stereo not shown) the value was above 5 µM. Regarding `N#Cc1ccn2ncc(C(=O)N3CCc4[nH]cnc4[C@H]3c3nc4cc(F)ccc4s3)c2c1` [Example 1160, (S)-3-(4-(5-fluorobenzo[d]thiazol-2-yl)-4,5,6,7-tetrahydro-1H-imidazo[4,5-c]pyridine-5-carbonyl)pyrazolo[1,5-a]pyridine-5-carbonitrile], the half-maximal activity concentration (AC50) under setting [1] is 0.5 to 1 µM. As for `O=C(c1cnc[nH]1)N1CCc2[nH]cnc2C1c1nc2ccccc2[nH]1` (stereo not shown), the AC50 under setting [2] was above 5 µM.

For `Cc1nc(-c2ccccn2)oc1C(=O)N1CCc2[nH]cnc2[C@@H]1c1nc2ccccc2s1` [Example 1372, (R)-(4-(benzo[d]thiazol-2-yl)-6,7-dihydro-1H-imidazo[4,5-c]pyridin-5(4H)-yl)(4-methyl-2-(pyridin-2-yl)oxazol-5-yl)methanone], the AC50 under setting [1] was above 5 µM. `CC1(C)CN(C(=O)c2cnco2)C(c2nc3c(F)cccc3s2)c2nc[nH]c21` (stereo not shown): the AC50 under setting [2] was above 5 µM. Same read-out and setting: the same measure for `O=C(c1cnn2cc(Br)ccc12)N1CCc2[nH]cnc2C1c1nc2ccc(Br)cc2[nH]1` (stereo not shown): above 5 µM.

Turning to `O=C(Cc1nncs1)N1CCc2[nH]cnc2[C@H]1c1nc2c(F)cccc2s1` (single isomer, unassigned), under setting [2], the AC50 is 1 to 5 µM. Regarding `Cn1nc(CF)cc1C(=O)N1CCc2[nH]cnc2[C@H]1c1nc2c(F)cccc2s1` [Example 1917, (S)-(4-(4-fluorobenzo[d]thiazol-2-yl)-6,7-dihydro-1H-imidazo[4,5-c]pyridin-5(4H)-yl)(3-(fluoromethyl)-1-methyl-1H-pyrazol-5-yl)methanone], the AC50 under setting [1] is 0.5 to 1 µM.

In the case of `O=C(CC1(O)CCC1)N1CCc2[nH]cnc2[C@@H]1c1nc2c(F)cccc2s1` [Example 1648, (R)-1-(4-(4-fluorobenzo[d]thiazol-2-yl)-6,7-dihydro-1H-imidazo[4,5-c]pyridin-5(4H)-yl)-2-(1-hydroxycyclobutyl)ethanone], under setting [1], the AC50 was in the range of 1 to 5 µM.
